Biological target: T1, fluoroacetate dehalogenase (FAcD) (Rhodopseudomonas palustris, UniProt Q6NAM1)
T1 construct: gene RPA1163; 300-residue homodimer expressed in E. coli BL21; all Trp replaced biosynthetically by 5-fluoro-(phenyl-13C6)-L-tryptophan; 9 Trp per protomer
Assay: […]-13C TROSY HSQC and 1D […] NMR
Format: binding
Settings: 50 °C; enzyme saturated with bromoacetate; 5-fluorotryptophan-labelled enzyme; active site; unreacted substrate analogue

T1 sequence (Q6NAM1 whole entry): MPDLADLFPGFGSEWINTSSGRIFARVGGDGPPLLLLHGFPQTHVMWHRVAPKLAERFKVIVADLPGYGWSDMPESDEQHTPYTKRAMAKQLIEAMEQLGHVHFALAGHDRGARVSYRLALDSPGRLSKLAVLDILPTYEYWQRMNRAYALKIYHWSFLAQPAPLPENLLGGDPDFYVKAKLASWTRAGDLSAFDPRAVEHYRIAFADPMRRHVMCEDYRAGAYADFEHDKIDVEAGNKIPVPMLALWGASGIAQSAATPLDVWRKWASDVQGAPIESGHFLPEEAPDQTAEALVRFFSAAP

## O=C(O)CBr [bromoacetate]
  19F-13C TROSY HSQC and 1D 19F NMR: The addition of BrAc is also observed to result in a pronounced shift for W185

— publication PMC11465415, “Characterization of conformational states of the homodimeric enzyme fluoroacetate dehalogenase by ^19F–^13C two-dimensional NMR” (RSC Chemical Biology, 2024)
